Results from US5684140A, “Dyes for ink jet printing” (Ilford A.G., priority 1995, dated 1997).

Assay: Water solubility of the dyes (excess dye heated at 50 °C in water, cooled to 20 °C, filtered, determined spectroscopically)
Format: physicochemical
Conditions: after heating at 50 °C for one hour
Method: The solubilities of the dyes according to the invention were determined as follows:
An excess of dye was heated at 50° C. in water with stirring for one hour. The mixture was then cooled down to 20 ° C. and filtered, and the dye content of the clear solution was determined spectroscopically.

Compound | solubility
COc1cc(N=Nc2cc(S(=O)(=O)O)c3cccc(S(=O)(=O)O)c3c2)c(C)cc1Nc1nc(O)nc(NCCS(=O)(=O)O)n1 [Compound 100] | 31 g per 100 ml
COc1cc(N=Nc2cc(S(=O)(=O)O)c3cccc(S(=O)(=O)O)c3c2)c(C)cc1Nc1nc(NCCS(=O)(=O)O)nc(SCCO)n1 [Compound 101] | 40 g per 100 ml
COc1cc(N=Nc2cc(S(=O)(=O)O)c3cccc(S(=O)(=O)O)c3c2)c(C)cc1Nc1nc(NCCS(=O)(=O)O)nc(SCC(=O)O)n1 [Compound 102] | 54 g per 100 ml
CCN(c1nc(Cl)nc(Nc2ccc(N=Nc3cc4c(S(=O)(=O)O)cc(S(=O)(=O)O)cc4cc3S(=O)(=O)O)c(NC(N)=O)c2)n1)c1cc(S(=O)(=O)O)ccc1C [dye 1, reference compound] | 11 g per 100 ml
CCN(c1nc(Cl)nc(Nc2cc(NC(C)=O)c(N=Nc3cc(S(=O)(=O)O)c4cccc(S(=O)(=O)O)c4c3)cc2OC)n1)c1cc(S(=O)(=O)O)ccc1C [dye 5, reference compound] | 17 g per 100 ml
